Test results from ChEMBL document CHEMBL1201862, “PubChem BioAssay data set” (2004).
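Cells were grown in 96-well plates and exposed to each compound for 48 hours at five concentrations; endpoints were interpolated linearly between bracketing concentrations, or set to the highest concentration if not reached. Abbreviation: GI50, concentration required for 50% inhibition of growth.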 Active and inactive are the calls of the source. Rule as the data show it: active = GI50 up to about 1.1 µM and inactive = higher.

Columns and labels:
Experiment in all cases: NCI anticancer screen, dose series, 48 h
[1] = test system: UACC-257
[2] = test system: HOP-62
[3] = test system: OVCAR-8
[4] = test system: OVCAR-5
[5] = test system: NCI-H23
[6] = test system: HL-60
[7] = test system: HCC 2998
[8] = test system: U-251
[9] = test system: SK-MEL-28
[10] = test system: M14
[11] = test system: UACC-62
[12] = test system: A549
[13] = test system: SNB-19
[14] = test system: NCI-H226
[15] = test system: RPMI-8226
[16] = test system: EKVX
[17] = test system: COLO 205
[18] = test system: A498
[19] = test system: PC-3

SMILES	GI50 [1]	GI50 [2]	GI50 [3]	GI50 [4]	GI50 [5]	GI50 [6]	GI50 [7]	GI50 [8]	GI50 [9]	GI50 [10]	GI50 [11]	GI50 [12]	GI50 [13]	GI50 [14]	GI50 [15]	GI50 [16]	GI50 [17]	GI50 [18]	GI50 [19]
O=C(N/C(=C\c1ccc2c(c1)OCO2)c1nc2ccccc2[nH]1)c1ccccc1	19.6 µM (inactive)	24.5 µM (inactive)	37 µM (inactive)	37.6 µM (inactive)	18.6 µM (inactive)	14.8 µM (inactive)	27.7 µM (inactive)	32 µM (inactive)	17.6 µM (inactive)	25.1 µM (inactive)	20.9 µM (inactive)	35.2 µM (inactive)	36 µM (inactive)	21 µM (inactive)	32.2 µM (inactive)	41.2 µM (inactive)	25.1 µM (inactive)	33.1 µM (inactive)	
CC1COS(=O)N1c1ccccc1 (stereo unspecified)	> 100 µM (inactive)	> 100 µM (inactive)	> 100 µM (inactive)	> 100 µM (inactive)	> 100 µM (inactive)	> 100 µM (inactive)	> 100 µM (inactive)	> 100 µM (inactive)	> 100 µM (inactive)	> 100 µM (inactive)	> 100 µM (inactive)	> 100 µM (inactive)		> 100 µM (inactive)	> 100 µM (inactive)	> 100 µM (inactive)	> 100 µM (inactive)	> 100 µM (inactive)	
Cc1ccc(C(=O)C#Cc2cnc(O)nc2O)cc1	14.2 µM (inactive)	29.3 µM (inactive)	12.4 µM (inactive)	18.9 µM (inactive)	17.5 µM (inactive)	11.5 µM (inactive)	12.7 µM (inactive)	12.9 µM (inactive)	16.9 µM (inactive)	13.2 µM (inactive)	10.2 µM (inactive)	18.3 µM (inactive)	18.2 µM (inactive)	17.4 µM (inactive)		17.2 µM (inactive)	13 µM (inactive)	14.7 µM (inactive)	
Clc1c(Cl)c2c(Cl)c(Cl)c1C[PH](c1ccccc1)(c1ccccc1)CC[PH](c1ccccc1)(c1ccccc1)Cc1c(Cl)c(Cl)c(c(Cl)c1Cl)C[PH](c1ccccc1)(c1ccccc1)CC[PH](c1ccccc1)(c1ccccc1)C2	2.38 µM (inactive)	4.95 µM (inactive)	3.29 µM (inactive)	3.15 µM (inactive)	2.01 µM (inactive)	1.36 µM (inactive)	3.63 µM (inactive)	3.22 µM (inactive)	2.02 µM (inactive)	4.51 µM (inactive)	1.85 µM (inactive)	3.72 µM (inactive)	2.67 µM (inactive)	5.07 µM (inactive)	1.28 µM (inactive)	9.08 µM (inactive)	1.53 µM (inactive)	11.4 µM (inactive)	
Cc1c2ccnc(C(N)=O)c2c(C)c2c1[nH]c1ccccc12	10.5 µM (inactive)	5.97 µM (inactive)	4.13 µM (inactive)	18.8 µM (inactive)	4.84 µM (inactive)	13.4 µM (inactive)	14.1 µM (inactive)	8.51 µM (inactive)	7.78 µM (inactive)	6.58 µM (inactive)	4.92 µM (inactive)	5.47 µM (inactive)	8.13 µM (inactive)	6.65 µM (inactive)	5.82 µM (inactive)	10.6 µM (inactive)	5.07 µM (inactive)	8.18 µM (inactive)	
C=CCc1cc(OC)c(O)c(C(=O)/C=C/c2ccc(OC)c(OC)c2)c1	19.3 µM (inactive)	> 10 µM (inactive)	> 10 µM (inactive)	20.1 µM (inactive)	15 µM (inactive)	11.6 µM (inactive)	21.8 µM (inactive)	17.4 µM (inactive)	16.9 µM (inactive)	17 µM (inactive)	23.8 µM (inactive)	28.9 µM (inactive)	15.6 µM (inactive)		0.67 µM (active)	20.2 µM (inactive)	15.3 µM (inactive)	17.9 µM (inactive)	
N#CCC(=O)N/N=C(/C(=O)Nc1ccccc1)C1C(=O)N(c2ccccc2)N=C1N (stereo unspecified)	> 100 µM (inactive)	> 100 µM (inactive)	> 100 µM (inactive)	> 100 µM (inactive)	> 100 µM (inactive)	> 100 µM (inactive)	> 100 µM (inactive)	> 100 µM (inactive)	> 100 µM (inactive)	> 100 µM (inactive)	> 100 µM (inactive)	> 100 µM (inactive)	> 100 µM (inactive)	> 100 µM (inactive)	> 100 µM (inactive)	> 100 µM (inactive)	> 100 µM (inactive)	> 100 µM (inactive)	
Cc1nn(-c2ccccc2)c2nc(N3CCOCC3)nnc12	> 100 µM (inactive)	> 100 µM (inactive)	92.5 µM (inactive)	> 100 µM (inactive)	79.6 µM (inactive)		> 100 µM (inactive)	52.8 µM (inactive)	> 100 µM (inactive)	97.1 µM (inactive)	69.2 µM (inactive)	94.4 µM (inactive)	> 100 µM (inactive)		46.6 µM (inactive)	> 100 µM (inactive)	> 100 µM (inactive)	66.1 µM (inactive)	
CCCNC(=O)C(C)(Cl)C(=O)c1ccccc1O (stereo unspecified)	> 100 µM (inactive)	> 100 µM (inactive)	> 100 µM (inactive)			> 100 µM (inactive)	> 100 µM (inactive)	> 100 µM (inactive)	> 100 µM (inactive)	> 100 µM (inactive)	> 100 µM (inactive)	> 100 µM (inactive)	> 100 µM (inactive)	> 100 µM (inactive)	> 100 µM (inactive)		> 100 µM (inactive)	> 100 µM (inactive)	
O=C(O/N=C1/CCCC/C1=C\c1ccccc1)c1ccccc1	> 100 µM (inactive)	> 100 µM (inactive)	42.5 µM (inactive)	> 100 µM (inactive)	> 100 µM (inactive)	20.2 µM (inactive)	> 100 µM (inactive)	92.7 µM (inactive)	> 100 µM (inactive)	> 100 µM (inactive)	> 100 µM (inactive)	> 100 µM (inactive)	> 100 µM (inactive)	> 100 µM (inactive)	> 100 µM (inactive)	> 100 µM (inactive)	> 100 µM (inactive)	0.178 µM (active)	
N#Cc1nc(Nc2ccc(Cl)cc2)sc1N	10.2 µM (inactive)	15 µM (inactive)	16.7 µM (inactive)	12.1 µM (inactive)	3.19 µM (inactive)	4.92 µM (inactive)	6.87 µM (inactive)	10.2 µM (inactive)	20.5 µM (inactive)	23.6 µM (inactive)	10.1 µM (inactive)	10.7 µM (inactive)	22.1 µM (inactive)	19.8 µM (inactive)	2.34 µM (inactive)	24.2 µM (inactive)	6.68 µM (inactive)	10.9 µM (inactive)	
Cc1cc(C)nc(NS(=O)(=O)c2ccc(NC(=O)c3ccc4nc5ccccc5c(Nc5ccc(S(N)(=O)=O)cc5)c4c3)cc2)n1	> 100 µM (inactive)	> 100 µM (inactive)	> 100 µM (inactive)	> 100 µM (inactive)	> 100 µM (inactive)	57.9 µM (inactive)	> 100 µM (inactive)	59 µM (inactive)	86.7 µM (inactive)	> 100 µM (inactive)	> 100 µM (inactive)	> 100 µM (inactive)	> 100 µM (inactive)	> 100 µM (inactive)	64.1 µM (inactive)	> 100 µM (inactive)	> 100 µM (inactive)		> 100 µM (inactive)
C/C(=N\NS(=O)(=O)c1ccccc1)c1ccc[n+]([O-])n1	58.7 µM (inactive)	> 100 µM (inactive)	81.7 µM (inactive)	> 100 µM (inactive)	> 100 µM (inactive)	21.8 µM (inactive)	> 100 µM (inactive)	> 100 µM (inactive)	62.5 µM (inactive)	30.1 µM (inactive)	> 100 µM (inactive)	> 100 µM (inactive)	> 100 µM (inactive)		28.1 µM (inactive)	> 100 µM (inactive)		> 100 µM (inactive)	
CC(C)N(C(=O)C12C3C4C1(I)C1C2C3(I)C41C(=O)N(C(C)C)C(C)C)C(C)C (stereo unspecified)	> 100 µM (inactive)	> 100 µM (inactive)	> 100 µM (inactive)	> 100 µM (inactive)	> 100 µM (inactive)	> 44.9 µM (inactive)	> 100 µM (inactive)	> 71 µM (inactive)	> 100 µM (inactive)	> 100 µM (inactive)	> 100 µM (inactive)	> 100 µM (inactive)	> 100 µM (inactive)	> 100 µM (inactive)	> 52.2 µM (inactive)	> 100 µM (inactive)	> 57.3 µM (inactive)	> 100 µM (inactive)	
O=C1NC(=O)C(C(=O)C(=O)Nc2cccc(C(F)(F)F)c2)C(=O)N1	53 µM (inactive)	> 100 µM (inactive)	> 100 µM (inactive)	> 100 µM (inactive)	> 100 µM (inactive)	> 100 µM (inactive)	> 100 µM (inactive)	> 100 µM (inactive)	> 100 µM (inactive)	> 100 µM (inactive)	> 100 µM (inactive)	> 100 µM (inactive)	> 100 µM (inactive)		> 100 µM (inactive)	> 100 µM (inactive)	> 100 µM (inactive)	> 100 µM (inactive)	
Cn1c2ccccc2c2c3c(c4c5ccccc5n(C)c4c21)C(=O)NC3=O	> 65.2 µM (inactive)	12.2 µM (inactive)	18.7 µM (inactive)	72.8 µM (inactive)	15.1 µM (inactive)		> 33.7 µM (inactive)	16.8 µM (inactive)	> 65.2 µM (inactive)	> 41.3 µM (inactive)	> 32.9 µM (inactive)	> 19.7 µM (inactive)	15.3 µM (inactive)	40.7 µM (inactive)	> 51.9 µM (inactive)	10.9 µM (inactive)	> 72.6 µM (inactive)		> 31.4 µM (inactive)
